Source: US20230212171A1, “ALLOSTERIC EGFR INHIBITORS AND METHODS OF USE THEREOF” (Dana-Farber Cancer Institute, Inc., priority 2020, published 2023)
pIC50: −log10 of the molar value. Structures can show the parent of a compound that is named as a salt.

Columns and labels:
[1] = target: EGFR mutant L858R Ba/F3 cells (Homo sapiens, UniProt P00533, L858R, cells depend on it); experiment: Ba/F3 cell proliferation model (Cell Titer Glo), EGFR L858R; type: cell-based, murine; conditions: single agent, 72 hours; read-out: Cell ICso BaF3 EGFR L858R
Text: (§1) The EGFR mutant L858R and L858R/T790M Ba/F3 cells have been previously described (Zhou, W., et al. Nature 462, 2009, 1070-1074). All cell lines were maintained in RPMI 1640 (Cellgro; Mediatech Inc., Herndon, CA) supplemented with 10% FBS, 100 units/mL penicillin, 100 units/mL streptomycin. The EGFR I941R mutation was introduced via site directed mutagenesis using the Quick Change Site-Directed Mutagenesis kit (Stratagene; La Jolla, CA) according to the manufacturer’s instructions. All constructs were confirmed by DNA sequencing. The constructs were shuttled into the retroviral vector JP1540 using the Cre-recombination system (Agilent Technologies, Santa Clara, CA). Ba/F3 cells were then infected with retrovirus per standard protocols, as described previously (Zhou, et al, Nature 2009). Stable clones were obtained by selection in puromycin (2 µg/ml).
(§2) Growth and inhibition of growth was assessed by the Cell Titer Glo assay (Promega, Madison, WI) and was performed according to the manufacturer’s instructions. The Cell Titer Glo assay is a luminescence-based method used to determine the number of viable cells based on quantitation of the ATP present, which is directly proportional to the amount of metabolically active cells present. Ba/F3 cells of different EGFR genotypes were exposed to compounds as a single agent or in combination with 1 µg/mL cetuximab for 72 hours and the number of cells used per experiment was determined empirically as has been previously established (Zhou, et al., Nature 2009). All experimental points were set up in triplicates in 384-well plates and all experiments were repeated at least three times. […] The curves were fitted using a non-linear regression model with a sigmoidal dose response.

[2] = target: EGFR L858R (Homo sapiens, UniProt P00533, L858R); experiment: HTRF-based EGFR biochemical assay (L858R); conditions: enzyme 0.1 nM, ATP 100 µM, 30 min preincubation
Description: (§3) EGFR biochemical activity measurements were carried out using the homogeneous time-resolved fluorescence (HTRF) assay (Cisbio). Inhibitors and DMSO normalizations were first dispensed to empty black low-volume 384-well plates (Corning) with D300 digital liquid dispenser (HP). All reactions were carried out at room temperature and solutions were added to plates with a Multidrop Combi Reagent Dispenser (ThermoFisher). The reaction mixture (10 µL final volume) contained 1 µM tyrosine kinase peptide-biotin substrate and mutant EGFR in a reaction buffer (50 mM HEPES pH 7.0, 5 mM MgCl2, 1 mM MnCl2, 0.01% BSA, 2 mM TCEP, 0.1 mM NaVO4). Enzyme concentrations were adjusted to accommodate varying kinase activities (L858R 0.1 nM, L858R/T790M 0.02 nM). Enzyme reaction solution (2× concentrations, 5 µL) was added to 384-well plates containing compounds and incubated for 30 mins. Enzyme reactions were initiated with the addition of 5 µL of ATP to a final concentration of 100 µM and reacted for 20 mins. Reactions were quenched with the addition of 10 µL of phospho-tyrosine antibody-Europium(III) cryptate (1-to-180 volume ratio) and Streptavidin-XL665 (46.7 nM) in EDTA-containing detection buffer, then incubated at room temperature for 1 hour, and read with a PHERAstar plate reader (excitation = 337 nm, emission = 620 nm and 665 nm). IC50 values were determined by inhibition curves (11-point curves from 1.0 µM to 0.130 nM or 23-point curves from 1.0 µM to 0.130 pM) in triplicate with non-linear least squares fit in GraphPad Prism 7.0d.

[3] = target: EGFR L858R/T790M (Homo sapiens, UniProt P00533, L858R/T790M); experiment: HTRF-based EGFR biochemical assay (L858R/T790M); conditions: enzyme 0.02 nM, ATP 100 µM, 30 min preincubation
Description: as §3

[4] = target: EGFR mutant L858R/T790M Ba/F3 cells (Homo sapiens, UniProt P00533, T790M/L858R, cells depend on it); experiment: Ba/F3 cell proliferation model (Cell Titer Glo), EGFR L858R/T790M; type: cell-based, murine; conditions: single agent, 72 hours; read-out: Cell IC50 BaF3 EGFR L858R/T790M
Text: as §1, §2

Sequence of EGFR mutant L858R Ba/F3 cells (P00533 whole entry L858R): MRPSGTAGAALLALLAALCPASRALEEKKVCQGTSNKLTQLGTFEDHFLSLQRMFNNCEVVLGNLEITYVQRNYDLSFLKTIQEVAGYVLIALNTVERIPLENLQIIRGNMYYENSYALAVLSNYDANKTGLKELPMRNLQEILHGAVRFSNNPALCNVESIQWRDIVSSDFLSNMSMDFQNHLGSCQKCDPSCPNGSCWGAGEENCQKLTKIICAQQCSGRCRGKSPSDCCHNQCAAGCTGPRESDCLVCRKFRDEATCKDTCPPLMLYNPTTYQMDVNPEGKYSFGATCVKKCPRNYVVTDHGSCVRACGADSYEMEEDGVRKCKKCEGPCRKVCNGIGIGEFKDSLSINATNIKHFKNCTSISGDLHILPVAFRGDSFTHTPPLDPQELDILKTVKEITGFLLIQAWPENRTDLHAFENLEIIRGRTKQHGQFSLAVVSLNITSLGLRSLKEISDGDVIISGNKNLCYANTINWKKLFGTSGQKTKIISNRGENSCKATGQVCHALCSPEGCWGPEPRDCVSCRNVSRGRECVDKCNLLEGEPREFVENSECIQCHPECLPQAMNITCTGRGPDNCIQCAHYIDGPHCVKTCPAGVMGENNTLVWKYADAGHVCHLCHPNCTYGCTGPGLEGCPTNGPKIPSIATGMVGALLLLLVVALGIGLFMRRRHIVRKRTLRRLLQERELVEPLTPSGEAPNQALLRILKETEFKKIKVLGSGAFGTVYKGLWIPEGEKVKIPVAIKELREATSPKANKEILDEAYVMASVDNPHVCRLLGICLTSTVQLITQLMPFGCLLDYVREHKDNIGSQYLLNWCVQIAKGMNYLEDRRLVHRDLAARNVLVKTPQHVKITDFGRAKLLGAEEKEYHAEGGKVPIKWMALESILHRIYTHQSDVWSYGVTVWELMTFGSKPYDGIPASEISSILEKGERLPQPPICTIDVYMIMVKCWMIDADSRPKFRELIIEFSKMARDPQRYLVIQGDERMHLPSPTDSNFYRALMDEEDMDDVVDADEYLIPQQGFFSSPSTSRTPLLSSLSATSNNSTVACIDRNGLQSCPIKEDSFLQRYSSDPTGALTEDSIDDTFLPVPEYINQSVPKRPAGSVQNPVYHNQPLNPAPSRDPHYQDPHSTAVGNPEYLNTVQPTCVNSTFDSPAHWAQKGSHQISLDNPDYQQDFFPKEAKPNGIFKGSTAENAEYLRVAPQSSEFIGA
Sequence of EGFR mutant L858R/T790M Ba/F3 cells (P00533 whole entry T790M/L858R): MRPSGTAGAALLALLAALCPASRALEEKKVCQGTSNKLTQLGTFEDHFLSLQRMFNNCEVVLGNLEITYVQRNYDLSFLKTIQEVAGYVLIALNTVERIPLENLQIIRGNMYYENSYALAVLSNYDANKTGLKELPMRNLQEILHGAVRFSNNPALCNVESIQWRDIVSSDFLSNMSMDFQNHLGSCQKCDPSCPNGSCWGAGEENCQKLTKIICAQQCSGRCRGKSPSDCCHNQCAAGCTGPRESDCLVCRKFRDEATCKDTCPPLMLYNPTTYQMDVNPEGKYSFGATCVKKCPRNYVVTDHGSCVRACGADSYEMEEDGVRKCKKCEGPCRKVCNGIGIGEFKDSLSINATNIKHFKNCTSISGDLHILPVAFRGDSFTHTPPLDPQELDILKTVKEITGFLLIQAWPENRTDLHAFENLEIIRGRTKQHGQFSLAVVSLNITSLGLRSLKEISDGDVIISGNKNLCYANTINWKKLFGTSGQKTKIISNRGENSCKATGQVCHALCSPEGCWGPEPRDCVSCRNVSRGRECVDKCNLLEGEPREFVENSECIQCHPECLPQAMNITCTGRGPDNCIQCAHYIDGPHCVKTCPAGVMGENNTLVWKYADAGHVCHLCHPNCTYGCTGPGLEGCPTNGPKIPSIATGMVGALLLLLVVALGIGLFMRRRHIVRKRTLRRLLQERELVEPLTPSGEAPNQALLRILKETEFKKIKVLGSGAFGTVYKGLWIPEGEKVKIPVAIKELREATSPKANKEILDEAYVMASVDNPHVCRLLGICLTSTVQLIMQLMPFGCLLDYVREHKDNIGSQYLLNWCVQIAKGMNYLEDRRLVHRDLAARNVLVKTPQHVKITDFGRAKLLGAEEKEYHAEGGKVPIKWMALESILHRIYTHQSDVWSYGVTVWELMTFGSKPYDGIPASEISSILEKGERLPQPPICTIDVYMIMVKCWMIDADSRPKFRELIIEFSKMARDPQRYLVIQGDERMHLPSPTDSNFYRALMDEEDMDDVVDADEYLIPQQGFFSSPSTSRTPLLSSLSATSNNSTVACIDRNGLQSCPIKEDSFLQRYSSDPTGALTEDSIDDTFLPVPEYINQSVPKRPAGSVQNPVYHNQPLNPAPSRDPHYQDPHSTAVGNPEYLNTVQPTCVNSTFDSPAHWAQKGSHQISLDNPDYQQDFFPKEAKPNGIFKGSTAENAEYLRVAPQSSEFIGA
Sequence of EGFR L858R (P00533 25-1210 L858R): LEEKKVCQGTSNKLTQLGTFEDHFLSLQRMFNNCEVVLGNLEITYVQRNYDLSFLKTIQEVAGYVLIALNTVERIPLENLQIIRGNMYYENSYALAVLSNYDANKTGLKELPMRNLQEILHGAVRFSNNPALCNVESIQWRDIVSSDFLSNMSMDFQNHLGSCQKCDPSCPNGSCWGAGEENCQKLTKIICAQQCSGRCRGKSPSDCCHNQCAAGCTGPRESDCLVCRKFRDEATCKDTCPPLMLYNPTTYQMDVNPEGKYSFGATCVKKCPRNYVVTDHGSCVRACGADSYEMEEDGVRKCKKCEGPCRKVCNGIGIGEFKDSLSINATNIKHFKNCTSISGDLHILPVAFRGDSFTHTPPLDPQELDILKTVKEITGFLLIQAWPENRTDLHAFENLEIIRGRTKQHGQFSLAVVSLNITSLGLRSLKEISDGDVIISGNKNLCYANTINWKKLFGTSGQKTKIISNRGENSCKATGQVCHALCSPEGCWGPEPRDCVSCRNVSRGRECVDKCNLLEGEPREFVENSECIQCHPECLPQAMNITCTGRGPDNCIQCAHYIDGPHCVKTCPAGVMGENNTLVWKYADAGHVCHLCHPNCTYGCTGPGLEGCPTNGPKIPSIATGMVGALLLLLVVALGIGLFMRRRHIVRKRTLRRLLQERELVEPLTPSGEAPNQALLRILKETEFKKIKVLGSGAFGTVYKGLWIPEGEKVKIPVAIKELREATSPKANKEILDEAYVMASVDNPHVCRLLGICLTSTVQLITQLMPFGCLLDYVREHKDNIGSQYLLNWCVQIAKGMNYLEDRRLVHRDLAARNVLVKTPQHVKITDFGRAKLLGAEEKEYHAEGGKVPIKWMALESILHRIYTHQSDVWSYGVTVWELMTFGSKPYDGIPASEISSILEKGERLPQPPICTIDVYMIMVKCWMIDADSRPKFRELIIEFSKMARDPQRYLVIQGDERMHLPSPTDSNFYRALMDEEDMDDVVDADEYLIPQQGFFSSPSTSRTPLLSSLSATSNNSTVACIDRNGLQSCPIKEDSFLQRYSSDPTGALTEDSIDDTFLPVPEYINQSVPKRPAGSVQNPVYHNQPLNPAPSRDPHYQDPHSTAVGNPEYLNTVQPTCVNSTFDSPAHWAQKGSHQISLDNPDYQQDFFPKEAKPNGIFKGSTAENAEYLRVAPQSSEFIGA
Sequence of EGFR L858R/T790M (P00533 25-1210 T790M/L858R): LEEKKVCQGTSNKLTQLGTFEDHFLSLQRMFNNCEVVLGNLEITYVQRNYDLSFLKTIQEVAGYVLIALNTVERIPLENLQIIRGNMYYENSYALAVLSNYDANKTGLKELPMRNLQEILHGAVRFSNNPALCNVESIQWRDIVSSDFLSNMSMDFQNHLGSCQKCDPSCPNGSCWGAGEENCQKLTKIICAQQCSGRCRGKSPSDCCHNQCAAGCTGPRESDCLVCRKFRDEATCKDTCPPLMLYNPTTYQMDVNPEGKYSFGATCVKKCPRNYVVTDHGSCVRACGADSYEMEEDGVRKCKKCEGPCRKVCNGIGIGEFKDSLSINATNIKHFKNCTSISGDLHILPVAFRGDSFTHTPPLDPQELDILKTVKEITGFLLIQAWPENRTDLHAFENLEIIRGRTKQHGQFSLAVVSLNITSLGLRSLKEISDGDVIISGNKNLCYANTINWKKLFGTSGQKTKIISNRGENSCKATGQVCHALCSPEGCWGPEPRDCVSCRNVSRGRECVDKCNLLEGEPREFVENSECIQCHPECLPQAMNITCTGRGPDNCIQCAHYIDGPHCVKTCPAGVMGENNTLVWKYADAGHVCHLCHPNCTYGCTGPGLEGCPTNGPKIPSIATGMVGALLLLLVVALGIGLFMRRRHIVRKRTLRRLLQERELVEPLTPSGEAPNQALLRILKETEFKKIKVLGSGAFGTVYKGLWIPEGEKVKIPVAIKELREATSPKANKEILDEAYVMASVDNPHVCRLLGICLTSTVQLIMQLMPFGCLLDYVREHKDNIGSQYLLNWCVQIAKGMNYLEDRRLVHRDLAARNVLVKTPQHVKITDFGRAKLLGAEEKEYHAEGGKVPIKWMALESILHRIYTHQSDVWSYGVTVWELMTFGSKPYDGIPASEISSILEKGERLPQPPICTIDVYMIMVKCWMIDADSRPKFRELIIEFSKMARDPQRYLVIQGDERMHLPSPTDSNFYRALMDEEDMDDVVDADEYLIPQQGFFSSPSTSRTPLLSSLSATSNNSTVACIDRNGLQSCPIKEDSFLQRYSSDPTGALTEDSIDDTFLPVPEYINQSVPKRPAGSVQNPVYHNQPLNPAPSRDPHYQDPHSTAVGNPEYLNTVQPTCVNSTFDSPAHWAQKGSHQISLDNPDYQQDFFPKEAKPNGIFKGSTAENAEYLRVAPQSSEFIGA

Structure (SMILES)	GI50 [1] [nM]	pIC50 [2]	pIC50 [3]	GI50 [4] [nM]
CN1CCC(c2ccc(-c3cc4c(=O)n(C(c5nc6ccccc6[nH]5)c5cc(F)ccc5O)ccc4s3)cc2)CC1 (stereo not drawn) [Compound 010, 5-[1H-benzimidazol-2-yl-(5-fluoro-2-hydroxy-phenyl)methyl]-2-[4-(1-methyl-4-piperidyl)phenyl]thieno[3,2-c]pyridin-4-one;dihydrochloride]	1080	8.70	9.10	240
CN1CCC(c2ccc(-c3cc4c(s3)CN(C(c3nc5ccccc5[nH]3)c3cc(F)ccc3O)C4=O)cc2)CC1 (stereo not drawn) [Compound 013, 5-[1H-Benzimidazol-2-Yl-(5-Fluoro-2-Hydroxy-Phenyl)Methyl]-2-[4-(1-Methyl-4-Piperidyl)Phenyl]-6H-Thieno[2,3-c]Pyrrol-4-One;Dihydrochloride]	1010	8.05	7.85	750
CN1CCC(c2ccc(-c3cc4c(s3)C(=O)N(C(c3nc5ccccc5[nH]3)c3cc(F)ccc3O)C4)cc2)CC1 (stereo not drawn) [Compound 014, 5-[1H-benzimidazol-2-yl-(5-fluoro-2-hydroxy-phenyl)methyl]-2-[4-(1-methyl-4-piperidyl)phenyl]-4H-thieno[2,3-c]pyrrol-6-one;dihydrochloride]	1330	7.68	7.68	1180

Other lines, results leading:

GI50 [1] [nM]	pIC50 [2]	pIC50 [3]	GI50 [4] [nM]	Structure (SMILES)
490	8.22	8.70	280	CN1CCC(c2ccc(-c3cc4c(s3)C(=O)N(C(c3nc5ccccc5[nH]3)c3cc(F)ccc3O)CC4)cc2)CC1 (stereo not drawn) [Compound 011, 6-[1H-benzimidazol-2-yl-(5-fluoro-2-hydroxy-phenyl)methyl]-2-[4-(1-methyl-4-piperidyl)phenyl]-4,5-dihydrothieno[2,3-c]pyridin-7-one;dihydrochloride]
1700	8.00	8.30	840	CN1CCC(c2ccc(-c3cc4c(s3)CCN(C(c3nc5ccccc5[nH]3)c3cc(F)ccc3O)C4=O)cc2)CC1 (stereo not drawn) [Compound 012, 5-[1H-Benzimidazol-2-Yl-(5-Fluoro-2-Hydroxy-Phenyl)Methyl]-2-[4-(1-Methyl-4-Piperidyl)Phenyl]-6,7-Dihydrothieno[3,2-c]Pyridin-4-One;Dihydrochloride]
530	8.22	8.10	480	CN1CCC(c2ccc(-c3ccc4c(c3)CC(=O)N(C(c3nc5ccccc5[nH]3)c3cc(F)ccc3O)C4)cc2)CC1 (stereo not drawn) [Compound 018, 2-[1H-benzimidazol-2-yl-(5-fluoro-2-hydroxy-phenyl)methyl]-6-[4-(1-methyl-4-piperidyl)phenyl]-1,4-dihydroisoquinolin-3-one]
